{"source": "patent US9260382B2", "about": "“Methods of reducing virulence in bacteria” (priority 2010, dated 2016)", "key": {"[1]": {"test_system": "gacA mRNA", "test": "qRT-PCR relative mRNA level of gacA", "format": "cell-based, Dickeya dadantii 3937", "details": "0.1 mM in MM", "description": "(§1) Bacterial strains were grown in MM. Total RNA from the bacterial cells was isolated by using the TRI reagent method (Sigma, Mo.) and treated with Turbo DNA-free DNase kits (Ambion, Tex.) as described (Peng et al., 2006). An iScript cDNA Synthesis Kit (Bio-Rad, CA) was used to synthesize cDNA from 0.5 μg of treated total RNA. The Real Master Mix (Eppendorf, Westbury, N.Y.) was used for qRT-PCR reaction to quantify the cDNA level of target genes in different samples. The rplU was used as the endogenous control for data analysis. qRT-PCR data were analyzed using Relative Expression Software Tool as described (Pfaffl, M. W., Horgan, G. W., and Dempfle, L. (2002) Relative expression software tool (REST) for group-wise comparison and statistical analysis of relative expression results in real-time PCR. Nucleic Acids Res 30:e36.)."}, "[2]": {"test_system": "hrpY mRNA", "test": "qRT-PCR relative mRNA level of hrpY", "format": "cell-based, Dickeya dadantii 3937", "details": "0.1 mM in MM", "description": "as §1"}, "[3]": {"test_system": "Pseudomonas syringae pv. tomato DC3000", "test": "Virulence assay in tomato plants (bacterial speck)", "format": "in vivo", "details": "five days post-inoculation; for bacterial speck lesions on tomato plants, in words: DC3000 with 250 μM", "description": "Virulence assays were performed in 4-5 week old tomato plants. Bacterial cell suspensions were adjusted to 6×10^5 cells/ml in dH2O with 0.02% Silwet L-77 (Lehle Seeds, Round Rock, Tex.). Lycopersicon esculentum cv. Moneymaker plants were dip-inoculated into negative control solution (dH2O with 0.02% Silwet L-77 and DMSO), positive control solution (DC3000 in dH2O with 0.02% Silwet L-77 and DMSO), or with a chemical treatment solution (DC3000 in dH2O with 0.02% Silwet L-77 and 250 μM TCA). Leaves were air-dried and plants were covered with a plastic dome and returned to the growth chamber. Plants were scored for disease symptoms using a modified scoring system (Kozik and Nowakowska 2010) five days post-inoculation. Lesions of bacterial speck on tomato were counted and the plants were scored using the following DSI scale: 0=no lesions per plant, 1=1-10 lesions, 2=11-20 lesions, 3=21-40 lesions, 4=>40 lesions.\nThe effects of TCA on virulence in tomato plants were examined. Lycopersicon esculentum cv. Moneymaker plants were dip-inoculated with a negative control treatment (dH2O with 0.02% Silwet L-77 and DMSO), a positive control treatment (DC3000 in dH2O with 0.02% Silwet L-77 and DMSO), or with a chemical treatment (DC3000 in dH2O with 0.02% Silwet L-77 and 250 μM TCA) as described in the methods. The lesions of bacterial speck on leaves per plant were counted and plants were classified with a disease severity index (DSI) as described in the methods. […] Plants treated with DC3000 were all scored with a DSI of four (FIG. 36B)."}, "[4]": {"test_system": "hrpA promoter (T3SS)", "test": "hrpA promoter activity assay in DC3000 (GFP, flow cytometry)", "format": "cell-based, Pseudomonas syringae pv. tomato DC3000", "details": "DC3000 (phrpA)", "description": "Expression of hrpA was analyzed using a FACS Calibur flow cytometer as previously described (BD Biosciences, CA) (Peng et al. 2006). Wild-type DC3000 carrying the promoter-probe phrpA or pPROBE-NT (vector control) was grown in KB broth overnight and transferred to HIM or HIM supplemented with different compounds as described (Li et al. 2009). The promoter activity of hrpA in DC3000 was monitored by measuring GFP intensity using flow cytometry.\nTo determine the maximum concentration of TCA that will inhibit hrpA promoter activity without affecting bacterial growth, DC3000 carrying phrpA was cultured in HIM and HIM supplemented with 25 μM, 50 μM, 100 μM, 250 μM, or 500 μM of TCA. Promoter activity was measured at 6 h and 9 h as mentioned above using flow cytometry. Bacterial growth was determined by withdrawing samples of each culture and spot-plating serial dilutions onto King's B agar (King et al. 1954) in tandem with promoter activity assays. Colonies were counted after 48 h of incubation at 28° C."}, "[5]": {"test_system": "P. aeruginosa", "test": "P. aeruginosa bacterial growth with compound", "format": "cell-based, P. aeruginosa PA01", "description": "To identify T3SS inhibitors of PA01, a promoter-probe vector pPROBE-AT containing the promoterless green fluorescent protein (gfp) gene was used to construct an exoS promoter-gfp plasmid reporter, pATexoS. PA01 containing pATexoS was cultured in T3SS-inducing medium containing dimethyl sulfoxide (DMSO; solvent of chemical compounds), or supplemented with 250 μM of each compound, and promoter activity was assessed at 6 h by measuring GFP intensity using flow cytometry. 101 compounds (58 synthesized and 43 commercially available) were screened. Compounds 027, 032, 101, and 149 repressed exoS expression at the final concentration of 250 μM by at least one standard deviation below the sample average (Z score≦−1) (FIG. 37 A-E). Z score (or standard score) indicates how many standard deviations an observation or datum is above or below the mean [z=(x−μ)/σ, where x is a raw score to be standardized, μ is the mean of the population, and σ is the standard deviation of the population].\nTo determine the effective concentration of compounds, the dose-dependent effect of potential inhibitors on exoS expression and bacterial growth were tested. P. aeruginosa cells carrying pATexoS were pre-cultured in LB supplemented with 200 mM NaCl and transferred to fresh LB with 200 mM NaCl, 10 mM NTA, and various concentrations of compounds (20, 50, 100, and 250 μM) or DMSO for 6 h. […] At 50 μM dosage, both 027 and 101 inhibited exoS expression at similar levels, and this inhibitory effect increased as compound concentration increased (FIG. 38A and Table 17). […] These inhibitions/inductions of exoS expression are caused by the shifting bacterial population between low-state expression cells and high-state expression cells (FIG. 40)."}, "[6]": {"test_system": "rsmB RNA", "test": "Northern blot analysis of rsmB RNA", "format": "cell-based, D. dadanti 3937", "details": "bacterial cells cultured in media supplemented with compound (FIG. 23)", "source_text": "Northern blot analysis was used to quantify rsmB RNA of D. dadanti 3937."}}}
{"smiles": "O=C(O)/C=C/c1ccccc1O", "note": "[Compound 006, Ortho-coumaric acid]", "values": [{"measurement": "gacA mRNA compared with MM alone, in words", "setting": "[1]", "result": "No significant difference"}, {"measurement": "hrpY mRNA compared with MM alone, in words", "setting": "[2]", "result": "No significant difference"}]}
{"smiles": "O=C(O)/C=C/c1ccccc1", "note": "[Compound 001, trans-cinnamic acid]", "values": [{"measurement": "disease severity index (DSI)", "setting": "[3]; tomato Lycopersicon esculentum cv. Moneymaker dip-inoculated with DC3000 and 250 μM", "result": "zero"}, {"measurement": "bacterial speck lesions on tomato plants, in words", "setting": "[3]", "result": "No lesions of bacterial speck were observed"}, {"measurement": "bacterial speck lesions on tomato plants, in words", "setting": "[3]; listed as TCA", "result": "no bacterial speck lesions were observed"}, {"measurement": "effect on hrpA promoter activity, in words", "setting": "[4]; HIM + 25 μM or 50 μM", "result": "less substantial effect"}, {"measurement": "reduction in hrpA promoter activity", "setting": "[4]; HIM + 100 μM", "result": 3, "unit": "fold"}, {"measurement": "effect on hrpA promoter activity, in words", "setting": "[4]; HIM + 250 μM and 500 μM", "result": "almost complete repression of hrpA promoter activity"}]}
{"smiles": "O=C(/C=C/c1ccc(O)cc1)NO", "note": "[Compound 103, trans-4-Hydroxycinnamohydroxamic acid]", "values": [{"measurement": "effect on bacterial growth, in words", "setting": "[5]; P. aeruginosa, 250 μM", "result": "some inhibition on bacterial growth"}, {"measurement": "dose-dependent effect on P. aeruginosa growth, in words", "setting": "[5]; various concentrations (up to 250 μM for 101, up to 500 μM for 027), FIG. 39", "result": "inverse relationship was observed between the compound concentration and bacterial growth"}, {"measurement": "rsmB RNA level, Northern blot, in words", "setting": "[6]", "result": "reduced rsmB mRNA"}]}
